{"source": "paper PMC12261233", "about": "“Photoactivatable Cyclometalated Ir(III) Compound Penetrates the Blood-Brain Barrier in 3D Spheroidal and Advanced 3D Organoid Models of Inherently Resistant and Aggressive Brain Tumors” (ACS Pharmacology & Translational Science, 2025)", "type_in_all_cases": "cell-based, human", "key": {"[1]": {"system": "hCMEC/D3 cells", "assay": "Iridium uptake in Transwell binary coculture BBB model (ICP-MS), hCMEC/D3", "details": "10 μM applied apically, 24 h", "protocol": "(§1) The cellular uptake of anticancer compounds after penetrating the BBB is crucial for their efficacy in treating brain tumors. Understanding the extent of cellular uptake provides insights into the distribution and localization of these compounds within brain tumor cells, making such studies essential for assessing their potential efficacy. We utilized the static Transwell binary coculture BBB model, comprising an […] hCMEC/D3 cell line (representing the BBB) and a glioblastoma U87MG cell line. In this model, hCMEC/D3 cells were seeded on the apical side of the Transwell, while U87MG cells were seeded on the basolateral side. […] After a 24-h incubation, cells were harvested, counted, and the iridium uptake by both cell lines was analyzed using ICP-MS. […]\n(§2) To confirm that the tested compounds can effectively target and accumulate in the desired U87MG glioblastoma cells, a coculture model was employed to monitor cellular uptake in both hCMEC/D3 cells and U87MG cells. […] The total iridium uptake by U87MG or hCMEC/D3 cells was analyzed 24 h after treatment. In brief, the apical and basolateral parts were separated, and each cellular model was harvested by trypsinization, pelleted by centrifugation, and counted. […] The final iridium content was determined through ICP-MS analysis. The experiments were replicated in triplicate, and the data are expressed as nanograms of iridium per one million cells."}, "[2]": {"system": "U87MG cells", "assay": "Iridium uptake in Transwell binary coculture BBB model (ICP-MS), U87MG", "details": "24 h", "protocol": "as §1, §2"}, "[3]": {"system": "cerebral organoid with U87MG spheroid implant", "assay": "Distribution of compound in organoid-spheroid implant model (confocal)", "details": "5 μM", "protocol": "An implant fusion model was established to monitor the distribution of Ir4 within the tumor, represented by the implanted tumorspheres generated from U87MG, and healthy tissue, represented by the hiPSC-derived cerebral organoid. Before the implantation procedure, spheroids derived from U87MG glioblastoma were cultured for 72 h under 3D forming conditions using ULA plates (96-well U-shaped plate, Corning) in DMEM-F12 supplemented with 2% B27, epidermal growth factor (EGF) at 20 ng mL^–1, fibroblast growth factor 2 (FGF2) at 10 ng mL^–1, and BSA (0.15%). Cerebral organoids were generated through a four-step directed differentiation process from human induced pluripotent stem cells (hiPSCs, Gibco). The hiPSCs were cultured on Geltrex matrix (hESC-Qualified, Reduced Growth Factor Basement Membrane Matrix; Gibco) in StemFlex basal medium (DMEM/F12, Ham, 1:1) fully supplemented with StemFlex supplement (Gibco). […] After the initial differentiation phase, early organoids were monitored for the development of optically clear neuroectoderm (characterized by an optically bright, translucent surface) and the formation of large buds of translucent ectoderm that were not radially organized. […] The samples were then transferred to confocal Petri dishes containing drug-free cerebral maturation medium and analyzed using a confocal microscope (Leica CM SP5, Leica, Germany)."}}}
{"smiles": "CCCCn1c2[n+](c3cc(C(=O)OC)ccc31)[Ir-3]13([Cl])([c]4ccccc4-2)[n+]2ccccc2-c2cc(-c4ccc(C)cc4)cc([n+]21)-c1cccc[n+]13.F[P-](F)(F)(F)(F)F", "note": "[Ir4]", "values": [{"measurement": "iridium uptake by hCMEC/D3 cells", "setting": "[1]", "value": "47 ± 7", "unit": "ng Ir/10^6 cells"}, {"measurement": "iridium uptake by U87MG cells", "setting": "[2]; 10 μM applied apically, binary coculture BBB model, basolateral cells", "value": "108 ± 14", "unit": "ng Ir/10^6 cells"}, {"measurement": "accumulation in U87MG cells compared to hCMEC/D3 cells", "setting": "[2]; 10 μM, coculture", "value": "more than 2 fold"}, {"measurement": "distribution in organoid-spheroid fusion system", "setting": "[3]", "value": "predominantly accumulated in malignant tissues"}]}
